One assay deals with ROCK1 (Homo sapiens (Human), UniProt Q13464). The assay is described as follows: ROCK assay (LABCHIP peptide phosphorylation), ROCK1. In kind it is biochemical. Particulars: 5 μM ATP, 1.5 μM peptide substrate; read-out: ROCK1 IC50.
The target of a further assay is ROCK2 (Homo sapiens (Human), UniProt O75116). The assay is described as follows: ROCK assay (LABCHIP peptide phosphorylation), ROCK2. In kind it is biochemical. Particulars: 5 μM ATP, 1.5 μM peptide substrate.
Sequence of ROCK2 (O75116 whole entry, species assumed): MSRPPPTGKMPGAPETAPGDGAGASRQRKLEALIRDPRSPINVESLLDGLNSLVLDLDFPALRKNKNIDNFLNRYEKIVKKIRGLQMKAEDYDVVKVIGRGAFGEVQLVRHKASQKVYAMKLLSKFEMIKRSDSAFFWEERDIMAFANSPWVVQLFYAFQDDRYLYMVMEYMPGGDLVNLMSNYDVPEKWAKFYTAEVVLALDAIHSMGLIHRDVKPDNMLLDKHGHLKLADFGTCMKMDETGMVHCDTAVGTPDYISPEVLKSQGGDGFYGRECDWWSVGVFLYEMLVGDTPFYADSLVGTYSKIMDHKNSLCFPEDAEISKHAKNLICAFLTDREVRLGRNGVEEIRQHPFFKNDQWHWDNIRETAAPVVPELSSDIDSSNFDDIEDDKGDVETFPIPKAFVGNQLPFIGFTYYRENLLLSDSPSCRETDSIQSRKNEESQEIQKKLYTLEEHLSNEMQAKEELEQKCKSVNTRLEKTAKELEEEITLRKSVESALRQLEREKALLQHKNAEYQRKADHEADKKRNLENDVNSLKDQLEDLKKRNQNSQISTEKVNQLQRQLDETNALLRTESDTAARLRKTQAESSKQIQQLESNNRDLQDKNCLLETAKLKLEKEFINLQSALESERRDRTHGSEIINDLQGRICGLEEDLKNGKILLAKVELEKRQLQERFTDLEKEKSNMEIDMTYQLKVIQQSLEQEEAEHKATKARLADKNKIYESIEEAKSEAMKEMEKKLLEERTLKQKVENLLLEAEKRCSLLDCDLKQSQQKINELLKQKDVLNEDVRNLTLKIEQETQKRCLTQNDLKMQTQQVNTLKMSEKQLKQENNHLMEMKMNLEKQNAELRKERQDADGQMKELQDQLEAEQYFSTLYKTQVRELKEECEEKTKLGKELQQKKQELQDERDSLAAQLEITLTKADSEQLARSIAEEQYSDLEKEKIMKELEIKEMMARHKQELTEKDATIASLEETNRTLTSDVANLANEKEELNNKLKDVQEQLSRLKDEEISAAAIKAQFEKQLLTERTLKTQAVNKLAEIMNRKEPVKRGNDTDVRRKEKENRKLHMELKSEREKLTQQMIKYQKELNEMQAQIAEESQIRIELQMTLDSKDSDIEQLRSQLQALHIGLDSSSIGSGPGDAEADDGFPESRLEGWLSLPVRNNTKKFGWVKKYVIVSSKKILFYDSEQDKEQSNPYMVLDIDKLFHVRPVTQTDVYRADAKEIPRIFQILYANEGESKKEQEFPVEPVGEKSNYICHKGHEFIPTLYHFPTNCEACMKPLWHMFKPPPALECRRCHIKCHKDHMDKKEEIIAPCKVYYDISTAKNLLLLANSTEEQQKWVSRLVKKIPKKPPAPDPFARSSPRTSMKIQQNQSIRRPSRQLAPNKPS

Sequence of ROCK1 (Q13464 whole entry, species assumed): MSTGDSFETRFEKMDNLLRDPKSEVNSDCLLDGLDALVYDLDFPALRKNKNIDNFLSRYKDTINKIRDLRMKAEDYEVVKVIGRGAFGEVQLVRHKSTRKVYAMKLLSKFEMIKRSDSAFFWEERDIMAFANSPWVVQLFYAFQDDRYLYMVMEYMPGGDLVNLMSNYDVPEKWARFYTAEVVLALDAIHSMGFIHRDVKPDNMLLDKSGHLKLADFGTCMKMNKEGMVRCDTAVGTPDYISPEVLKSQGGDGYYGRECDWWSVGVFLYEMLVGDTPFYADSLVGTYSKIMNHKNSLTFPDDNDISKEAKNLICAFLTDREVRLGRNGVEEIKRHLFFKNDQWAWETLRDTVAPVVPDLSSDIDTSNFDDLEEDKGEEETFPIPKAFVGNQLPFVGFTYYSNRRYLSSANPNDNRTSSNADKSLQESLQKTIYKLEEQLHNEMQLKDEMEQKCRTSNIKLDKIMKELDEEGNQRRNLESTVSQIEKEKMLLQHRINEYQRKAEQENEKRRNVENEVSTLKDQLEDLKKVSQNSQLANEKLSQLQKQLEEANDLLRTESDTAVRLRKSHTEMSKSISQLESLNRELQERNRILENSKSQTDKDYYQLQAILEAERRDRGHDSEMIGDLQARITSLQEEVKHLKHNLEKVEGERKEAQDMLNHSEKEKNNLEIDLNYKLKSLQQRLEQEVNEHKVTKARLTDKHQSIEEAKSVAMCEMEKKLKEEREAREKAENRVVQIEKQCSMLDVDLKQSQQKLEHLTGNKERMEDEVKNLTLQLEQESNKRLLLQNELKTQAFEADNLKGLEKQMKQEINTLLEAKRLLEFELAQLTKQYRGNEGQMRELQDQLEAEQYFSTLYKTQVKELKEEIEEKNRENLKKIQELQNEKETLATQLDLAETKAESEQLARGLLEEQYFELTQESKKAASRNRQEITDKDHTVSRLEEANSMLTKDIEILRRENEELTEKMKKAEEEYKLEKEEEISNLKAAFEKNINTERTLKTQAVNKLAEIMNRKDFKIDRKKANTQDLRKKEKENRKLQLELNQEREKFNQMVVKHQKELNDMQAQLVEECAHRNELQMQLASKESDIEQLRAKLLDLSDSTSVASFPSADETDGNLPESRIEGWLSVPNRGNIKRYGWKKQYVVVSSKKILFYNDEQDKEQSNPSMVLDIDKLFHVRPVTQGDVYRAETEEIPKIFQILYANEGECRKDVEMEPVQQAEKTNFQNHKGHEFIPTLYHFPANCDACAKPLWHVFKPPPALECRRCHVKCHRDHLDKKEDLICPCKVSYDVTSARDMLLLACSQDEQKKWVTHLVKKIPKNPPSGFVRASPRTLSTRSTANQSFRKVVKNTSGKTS

Take `CC(C)n1nc(C(=O)Nc2ccc(-c3n[nH]c(=O)c4ccccc34)c(CO)c2)c2ccccc21` [Example 364, N-(3-(Hydroxymethyl)-4-(4-oxo-3,4-dihydrophthalazin-1-yl)phenyl)-1-isopropyl-1H-indazole-3-carboxamide]: the IC50 at ROCK1 lay within 101 to 1000 nM; against ROCK2 it was 0.1 to 100 nM.
As for `Cc1cc(NC(=O)c2c3ccccc3nn2CC2COC2)ccc1-c1n[nH]c(=O)c2ccccc12` [Example 305, N-[3-methyl-4-(4-oxo-3,4-dihydrophthalazin-1-yl)phenyl]-2-(oxetan-3-ylmethyl)-2H-indazole-3-carboxamide], the IC50 on ROCK1 and against ROCK2 was 1000 to 50000 nM throughout.
As for `O=C(Cc1ccc(-c2c[nH]c(=O)c3ccccc23)c(F)c1)N1CCc2ccccc21` [Example 287, 4-(2-Fluoro-4-(2-(indolin-1-yl)-2-oxoethyl)phenyl)isoquinolin-1 (2H)-one], the IC50 at ROCK1 and against ROCK2 was 0.1 to 100 nM in each case.
As to `COc1cccc(-n2cc(C(=O)Nc3ccc(-c4n[nH]c(=O)c5ccccc45)cc3)cn2)c1` [Example 203, 1-(3-methoxyphenyl)-N-[4-(4-oxo-3,4-dihydrophthalazin-1-yl)phenyl]-1H-pyrazole-4-carboxamide], the IC50 at ROCK1 was in the range of 101 to 1000 nM; against ROCK2, 0.1 to 100 nM.
In the case of `Cc1csc(C(=O)Nc2ccc(-c3n[nH]c(=O)c4ccccc34)cc2)n1` [Example 50, 4-methyl-N-[4-(4-oxo-3,4-dihydrophthalazin-1-yl)phenyl]-1,3-thiazole-2-carboxamide], the half-maximal inhibitory concentration (IC50) at ROCK1 and against ROCK2 was 0.1 to 100 nM each time.
Regarding `O=C(Nc1ccc(-c2n[nH]c(=O)c3ccccc23)cc1)c1ccnn1-c1ccccc1` [Example 236, N-[4-(4-oxo-3,4-dihydrophthalazin-1-yl)phenyl]-1-phenyl-1H-pyrazole-5-carboxamide], the IC50 was 101 to 1000 nM on ROCK1 and 0.1 to 100 nM at ROCK2.
As for `O=C(Nc1ccc(-c2n[nH]c(=O)c3ccccc23)c(CO)c1)c1cnn2ccccc12` [Example 362, N-(3-(Hydroxymethyl)-4-(4-oxo-3,4-dihydrophthalazin-1-yl)phenyl)pyrazolo[1,5-a]pyridine-3-carboxamide], the IC50 was 1000 to 50000 nM on ROCK1 and 0.1 to 100 nM at ROCK2.
In the same order, the values of `O=C(Nc1ccc(-c2n[nH]c(=O)c3ccccc23)cc1)c1cnn([C@H]2C[C@@H]3CC[C@H]2C3)c1` [Example 393, 1-((1S,2S,4R)-Bicyclo[2.2.1]heptan-2-yl)-N-(4-(4-oxo-3,4-dihydrophthalazin-1-yl)phenyl)-1H-pyrazole-4-carboxamide] are 0.1 to 100 nM and 0.1 to 100 nM.
In the case of `O=C(Nc1ccc(-c2n[nH]c(=O)c3ccccc23)cc1)N1CC2(CCNCC2)c2ccccc21` [Example 371, N-(4-(4-Oxo-3,4-dihydrophthalazin-1-yl)phenyl)spiro[indoline-3,4′-piperidine]-1-carboxamide], the IC50 on ROCK1 and on ROCK2 was 101 to 1000 nM in each case.
For `CC(O)Cn1nc(C(=O)Nc2ccc(-c3n[nH]c(=O)c4ccccc34)cc2)c2ccccc21` (stereo not drawn) [Example 153, 1-(2-hydroxypropyl)-N-[4-(4-oxo-3,4-dihydrophthalazin-1-yl)phenyl]-1H-indazole-3-carboxamide], the IC50 on ROCK1 and against ROCK2 was 0.1 to 100 nM each time.
As to `Cc1cc(NC(=O)c2cnn3cc(OCCN4CCCC4)ccc23)ccc1-c1n[nH]c(=O)c2ccccc12` [Example 325, N-[3-methyl-4-(4-oxo-3,4-dihydrophthalazin-1-yl)phenyl]-6-[2-(pyrrolidin-1-yl)ethoxy] pyrazolo[1,5-a]pyridine-3-carboxamide], the results for the IC50 at ROCK1 and on ROCK2 were 101 to 1000 nM and 0.1 to 100 nM, respectively.
As to `O=C(Cc1ccc(-c2n[nH]c(=O)c3ccccc23)cc1)N1CCc2ccc(OCCN3CCCC3)cc21` [Example 286, 4-[4-(2-oxo-2-{6-[2-(pyrrolidin-1-yl)ethoxy]-2,3-dihydro-1H-indol-1-yl}ethyl)phenyl]-1,2-dihydrophthalazin-1-one], the IC50 on ROCK1 is 101 to 1000 nM; at ROCK2, 0.1 to 100 nM.
